Measurements reported in PubChem BioAssay (NCI).
“And” between values parts separate entries of the source, which are not always exact repeats. Identical values can stand only once.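 The compound was tested at five concentrations on cells cultured in 96-well plates, with a 48-hour exposure period. GI50 = concentration required for 50% inhibition of growth. The concentration for full growth arrest is given as TGI.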

Experiments:
Assay in all cases: NCI-60 cell line screen, 48 h
[1] = system: OVCAR-5 ovarian
[2] = system: A498 renal
[3] = system: BT-549 breast
[4] = system: MDA-MB-435
[5] = system: MOLT-4 leukemia
[6] = system: M14 melanoma
[7] = system: SK-MEL-5 melanoma
[8] = system: HS 578T breast
[9] = system: U251 CNS
[10] = system: SF-295 CNS

SMILES | TGI [1] | TGI [2] | TGI [3] | TGI [4] | TGI [5] | TGI [6] | TGI [7] | TGI [8] | TGI [9] | GI50 [2] | GI50 [3] | GI50 [4] | GI50 [10] | TGI [10] | GI50 [5] | GI50 [6] | GI50 [7] | GI50 [8] | GI50 [9] | GI50 [1]
O=C(NC(=O)c1ccccc1[N+](=O)[O-])Nc1ccc(Oc2ncc(Cl)cn2)c([N+](=O)[O-])c1 | > 100 µM | 30.3 µM | > 100 µM | 0.197 µM | > 100 µM | > 100 µM | > 14.1 µM | 0.636 µM | > 88.6 µM | – | – | – | – | – | – | – | – | – | – | –
N#Cc1c(N)n2c(nc1=Nc1ccc(Cl)cc1)sc1cc(Cl)ccc12 | – | 9.62 µM | > 100 µM | > 100 µM | – | > 100 µM | – | 5.92 µM | > 100 µM | 5240 nM and 1200 nM | 24.8 µM | 6.18 µM | 4120 nM and 3040 nM | 42.9 µM | 4420 nM | 6590 nM and 5900 nM | 8000 nM | 2980 nM and 1440 nM | 6560 nM | –
C(=N\Nc1ccccc1)/c1nc2ccccc2nc1/C=N/Nc1ccccc1 | 84.9 µM | 31.1 µM | – | – | 79.8 µM | 30 µM | 35.4 µM | – | – | – | – | – | – | 30.5 µM | – | – | – | – | – | –
COc1cc2c(c(OC)c1OC)-c1ccc(OC)c(=O)cc1[C@@H](NC(C)=O)CC2 | > 625 µM | – | > 70.9 µM | < 0.01 µM | – | > 100 µM and 32 µM | – | > 100 µM | – | – | – | – | – | – | < 10 nM and 35.2 nM and 62.5 nM | – | – | – | – | > 578 µM
CCOC(=O)C(N=C(c1ccccc1)c1ccccc1)N(C(=O)OC(C)(C)C)C(=O)OC(C)(C)C (centres undefined) | > 100 µM | – | – | – | > 100 µM | – | > 100 µM | – | > 100 µM | – | – | – | – | > 100 µM | – | – | – | – | – | –
COc1ccc2c(O)c(/C=C3\N=Nc4ccccc43)oc2c1C[C@@H]1CCNC[C@H]1F | 24 µM | 25.6 µM | 26.1 µM | 24.4 µM | 21.1 µM | 21.4 µM | – | 28.7 µM | 10.6 µM | 11300 nM | 12.8 µM | 11.3 µM | 3310 nM | 15.3 µM | 4500 nM | 6120 nM | – | 10300 nM | 3170 nM | 10.5 µM
CCOC(=O)Cc1csc(Nc2ccc(OCC)cc2)n1 | – | > 100 µM | – | – | > 100 µM | – | – | – | > 100 µM | – | – | – | – | > 100 µM | – | – | – | – | – | –
CCNC(=O)Nc1ccc(Oc2ccnc3ccc4c(ccn4C)c23)cc1 | > 100 µM | – | > 100 µM | > 100 µM | > 100 µM | > 100 µM | > 100 µM | – | 44.7 µM | – | 56.3 µM | > 100 µM | 18900 nM | 72.1 µM | 58200 nM | > 100000 nM | 75500 nM | – | 20600 nM | > 100 µM
Cc1cc(Nc2ncc3c(n2)N(C)C(=O)N(c2cc(NC(=O)c4cccc(C(F)(F)F)c4)ccc2C)C3)n(C)n1 | – | 0.0458 µM | 0.321 µM | – | > 46.4 µM | 0.096 µM | 7.87 µM | 0.206 µM | > 31.6 µM | 15.8 nM | 0.0628 µM | – | 364 nM | > 100 µM | 135 nM | < 10 nM | 283 nM | 35.3 nM | 31.7 nM | 0.0539 µM
O=c1c2ccccc2nc(/C=C(\O)c2ccncc2)n1-c1ccc(Cl)cc1 | > 100 µM | > 100 µM | – | – | > 100 µM | > 100 µM | > 100 µM | – | > 100 µM | – | – | – | – | > 100 µM | – | – | – | – | – | –
CN(C)CCCCC(C(=O)CBr)(c1ccccc1)c1ccccc1 | 10.9 µM | – | 3.47 µM | 10.5 µM | 5.67 µM | 3.95 µM | 8.68 µM | 22.7 µM | 11.5 µM | – | 1.48 µM | 2.45 µM | 5560 nM | 19.2 µM | 1920 nM | 1500 nM | 2530 nM | 3110 nM | 3070 nM | 3.06 µM
O=C1[C@@H]2C(c3ccccc3[N+](=O)[O-])=[N+](c3ccccc3)O[C@@H]2C(=O)N1c1ccc(Cc2ccc(N3C(=O)[C@H]4C(c5ccccc5[N+](=O)[O-])=[N+](c5ccccc5)O[C@H]4C3=O)cc2)cc1 | > 100 µM | > 100 µM | – | – | > 100 µM | 49.9 µM | > 100 µM | – | > 100 µM | – | – | – | – | > 100 µM | – | – | – | – | – | –
COc1ccc(Cn2cc3c(c2-c2ccccc2)CCc2cnoc2-3)cc1OC | > 100 µM | 3.27 µM | – | 0.864 µM | > 100 µM | > 100 µM | 10.4 µM | 6.94 µM | > 100 µM | 253 nM | – | 0.244 µM | 340 nM | > 100 µM | 1050 nM | 566 nM | 490 nM | 564 nM | 774 nM | 6.2 µM
NC1CCCCC1N.O=[Se]([O-])[O-].[Pt+4] (centres undefined) | 27.9 µM | 24.8 µM | – | – | > 100 µM | > 52.2 µM | – | – | 15.7 µM | 1760 nM | – | – | 304 nM | 21.6 µM | 77.5 nM | 2510 nM | 713 nM | – | 666 nM | 1.83 µM
O=C1NC2C(=CC(O)C(O)C2O)c2cc3c(cc21)OCO3 (centres undefined) | 4.14 µM and 11.4 µM | 3.64 µM and 2.69 µM | – | 0.965 µM | 0.511 µM and 1.24 µM | 1.41 µM | 0.936 µM and 5.01 µM and 1.23 µM | 0.55 µM | 0.437 µM and 3.07 µM | 904 nM and 568 nM | – | – | 889 nM and 317 nM | 3.26 µM and 2.39 µM | 305 nM and 454 nM | 424 nM | 282 nM | – | 325 nM and 68.8 nM | 0.802 µM
Nc1nc(N)c(-c2ccccc2)c(C(=O)Nc2ccccc2)n1 | > 100 µM | > 100 µM | – | – | > 100 µM | > 100 µM | > 100 µM | – | > 100 µM | – | – | – | – | – | – | – | – | – | – | –
COc1cc(-c2oc3c(OC)cc(OC)c(O)c3c(=O)c2OC)cc(OC)c1OC | > 100 µM | – | > 100 µM | > 100 µM | > 100 µM | > 100 µM | > 100 µM | 8.21 µM | > 100 µM | – | – | – | – | 7.55 µM | – | – | – | – | – | –
O=C(NCc1cccnc1)C1COc2cc(-c3cc(=O)c4ccccc4o3)ccc2O1 (centres undefined) | > 100 µM | 99.7 µM | – | – | > 100 µM | > 100 µM | > 100 µM | – | > 100 µM | – | – | – | – | > 69.8 µM | – | – | – | – | – | –
